Experimental data published in patent US10053462B2, “P2X7 modulators” (Jansssen Pharmaceutica NV, priority 2013, dated 2018).
Where two headings read alike, the source gives them in different places.

Target: P2X7 (Homo sapiens (Human), UniProt Q99572)
Assay: P2X7 antagonism in human peripheral blood mononuclear cells (PBMCs), IL-1β release
Format: cell-based
Details: LPS 30 ng/ml + Bz-ATP 0.5 mM; for remaining activity at 10 µM: read-out: PBMC 10 μM (% control); for PBMC 10 μM (% control): Table 1, 10 μM compound
Experimental: P2X7 Antagonism in Human Peripheral Blood Mononuclear Cells (PBMCs) and Human Whole Blood.
Human blood was collected using a blood donor program. PBMCs were isolated from blood using a Ficoll density gradient technique. Briefly, blood was laid on Ficoll solution and centrifuged at RT for 20 minutes at 2000 rpm. The buffy layer (between red blood cells and plasma) was carefully collected by aspiration, washed with PBS and centrifuged again at 1500 rpm for 15 minutes. The resulting cell pellet was washed and plated on 96 well-plates for experiments. For the Human Whole Blood experiments, 150 μl of human blood was platted on 96 well-plates. Lipopolysaccharide (LPS) (30 ng/ml) was added to each well and incubated for 1 hour. Test compounds were then added and incubated for 30 minutes. The P2X7 agonist, 2′(3′)-O-(4-benzoylbenzoyl) adenosine 5′-triphosphate (Bz-ATP) was then added at a final concentration of 0.5 mM (PBMC) or 1 mM (blood). Cells were incubated for an additional 1.5 hours. At that point, supernatant was collected and stored for IL-1β assay using manufacturer's protocol for enzyme-linked immunosorbent assay (ELISA). Data was expressed as percent control, where control is defined as the difference in IL-1β release in LPS+Bz-ATP samples and LPS only samples. Data was plotted as response (% control) versus concentration to generate IC50 values. […] Data are analyzed and graphed on Graphpad Prism 5. For analysis, each concentration point is averaged from triplicate values and the averaged values are plotted on Graphpad Prism.

[1] = P2X7, Table 2 (additional runs), 10 μM compound

Sequence of P2X7 (Q99572 whole entry): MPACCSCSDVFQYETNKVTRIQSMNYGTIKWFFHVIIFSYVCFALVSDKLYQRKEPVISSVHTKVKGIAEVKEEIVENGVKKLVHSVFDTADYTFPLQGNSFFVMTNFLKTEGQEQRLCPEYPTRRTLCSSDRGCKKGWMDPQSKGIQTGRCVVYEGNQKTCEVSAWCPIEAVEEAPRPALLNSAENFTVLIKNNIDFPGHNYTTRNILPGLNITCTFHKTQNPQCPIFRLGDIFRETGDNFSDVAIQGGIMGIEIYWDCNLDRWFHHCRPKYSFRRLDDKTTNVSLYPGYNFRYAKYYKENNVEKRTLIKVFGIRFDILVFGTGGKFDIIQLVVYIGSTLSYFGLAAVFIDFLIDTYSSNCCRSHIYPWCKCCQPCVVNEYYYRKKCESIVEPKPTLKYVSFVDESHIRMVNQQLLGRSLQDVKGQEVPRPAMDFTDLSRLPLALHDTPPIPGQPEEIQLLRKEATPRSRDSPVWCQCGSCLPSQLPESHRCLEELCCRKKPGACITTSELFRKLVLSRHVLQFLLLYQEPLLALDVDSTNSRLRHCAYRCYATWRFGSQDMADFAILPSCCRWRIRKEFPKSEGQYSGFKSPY

SMILES: Cc1ncsc1-c1nnc2n1C[C@@H]1CC[C@H]2N1C(=O)c1cccc(C(F)(F)F)c1Cl [Example 59, (6S,9R)-10-{[2-Chloro-3-(trifluoromethyl)phenyl]carbonyl}-3-(4-methyl-1,3-thiazol-5-yl)-6,7,8,9-tetrahydro-5H-6,9-epimino[1,2,4]triazolo[4,3-a]azepine]
- remaining activity at 10 µM [1]: 0.6%
- PBMC 10 μM (% control): 0.6 % control

SMILES: O=C(c1cccc(C(F)(F)F)c1Cl)N1[C@@H]2CCC[C@H]1c1nnc(-c3cccnn3)n1C2 (stereo in doubt) [Example 195, (6R,10S)-11-{[2-Chloro-3-(trifluoromethyl)phenyl]carbonyl}-3-pyridazin-3-yl-5,6,7,8,9,10-hexahydro-6,10-epimino[1,2,4]triazolo[4,3-a]azocine]
- remaining activity at 10 µM [1]: 11.2%

SMILES: O=C(c1ccc(F)c(C(F)(F)F)c1Cl)N1[C@@H]2CCC[C@H]1c1nnc(-c3ccccn3)n1C2 (stereo in doubt) [Example 200, (6R,10S)-11-{[2-Chloro-4-fluoro-3-(trifluoromethyl)phenyl]carbonyl}-3-pyridin-2-yl-5,6,7,8,9,10-hexahydro-6,10-epimino[1,2,4]triazolo[4,3-a]azocine]
- remaining activity at 10 µM [1]: 7.7%

SMILES: COc1ccnc(-c2nnc3n2C[C@@H]2CCC[C@H]3N2C(=O)c2cccc(C(F)(F)F)c2Cl)c1 (stereo in doubt) [Example 26, (6S*,10R*)-11-{[2-Chloro-3-(trifluoromethyl)phenyl]carbonyl}-3-(4-methoxypyridin-2-yl)-5,6,7,8,9,10-hexahydro-6,10-epimino[1,2,4]triazolo[4,3-a]azocine]
- remaining activity at 10 µM (P2X7, Table 1, 10 μM compound): 9.2%
- remaining activity at 10 µM [1]: 9.2%

SMILES: O=C(c1cccc(C(F)(F)F)c1Cl)N1[C@H]2CCC[C@@H]1c1nnc(-c3ncccn3)n1C2 (stereo in doubt) [Example 2, (6S*,10R*)-11-{[2-Chloro-3-(trifluoromethyl)phenyl]carbonyl}-3-pyrimidin-2-yl-5,6,7,8,9,10-hexahydro-6,10-epimino[1,2,4]triazolo[4,3-a]azocine]
- remaining activity at 10 µM (P2X7, Table 1, 10 μM compound): 45.7%
- remaining activity at 10 µM [1]: 45.7%

SMILES: O=C(c1cccc(C(F)(F)F)c1Cl)N1[C@@H]2CCC[C@H]1c1nnc(-c3ncccn3)n1C2 (stereo in doubt) [Example 3, (6R*,10S*)-11-{[2-Chloro-3-(trifluoromethyl)phenyl]carbonyl}-3-pyrimidin-2-yl-5,6,7,8,9,10-hexahydro-6,10-epimino[1,2,4]triazolo[4,3-a]azocine]
- remaining activity at 10 µM (P2X7, Table 1, 10 μM compound): 8.9%
- remaining activity at 10 µM [1]: 8.9%

SMILES: O=C(c1cccc(C(F)(F)F)c1Cl)N1[C@H]2CC[C@@H]1c1nnc(-c3ncccn3)n1C2 [Example 46, (6S,9R)-10-{[2-Chloro-3-(trifluoromethyl)phenyl]carbonyl}-3-pyrimidin-2-yl-6,7,8,9-tetrahydro-5H-6,9-epimino[1,2,4]triazolo[4,3-a]azepine]
- remaining activity at 10 µM [1]: 10%
- PBMC 10 μM (% control): 10.0 % control

SMILES: O=C(c1ccc(Cl)cc1Cl)N1[C@@H]2CCC[C@H]1c1nnc(-c3ncc(F)cn3)n1C2 (stereo in doubt) [Example 21, (6R*,10S*)-11-[(2,4-Dichlorophenyl)carbonyl]-3-(5-fluoropyrimidin-2-yl)-5,6,7,8,9,10-hexahydro-6,10-epimino[1,2,4]triazolo[4,3-a]azocine]
- remaining activity at 10 µM (P2X7, Table 1, 10 μM compound): -2.1%
- remaining activity at 10 µM [1]: -2.1%

SMILES: O=C(c1cccc(C(F)(F)F)c1Cl)N1[C@H]2CCC[C@@H]1c1nnc(-c3ccc(F)cc3)n1C2 (stereo in doubt) [Example 5, (6S*,10R*)-11-{[2-Chloro-3-(trifluoromethyl)phenyl]carbonyl}-3-(4-fluorophenyl)-5,6,7,8,9,10-hexahydro-6,10-epimino[1,2,4]triazolo[4,3-a]azocine]
- remaining activity at 10 µM (P2X7, Table 1, 10 μM compound): -4.4%
- remaining activity at 10 µM [1]: -4.4%

SMILES: Cc1nc(-c2nnc3n2C[C@H]2CCC[C@@H]3N2C(=O)c2cccc(C(F)(F)F)c2Cl)ccc1F (stereo in doubt) [Example 193, (6R,10S)-11-{[2-Chloro-3-(trifluoromethyl)phenyl]carbonyl}-3-(5-fluoro-6-methylpyridin-2-yl)-5,6,7,8,9,10-hexahydro-6,10-epimino[1,2,4]triazolo[4,3-a]azocine]
- remaining activity at 10 µM [1]: -13.8%

SMILES: O=C(c1cccc(C(F)(F)F)c1Cl)N1[C@@H]2CCC[C@H]1c1nnc(-c3cscn3)n1C2 (stereo in doubt) [Example 9, (6R*,10S*)-11-{[2-Chloro-3-(trifluoromethyl)phenyl]carbonyl}-3-(1,3-thiazol-4-yl)-5,6,7,8,9,10-hexahydro-6,10-epimino[1,2,4]triazolo[4,3-a]azocine]
- remaining activity at 10 µM (P2X7, Table 1, 10 μM compound): 7.3%
- remaining activity at 10 µM [1]: 7.3%

SMILES: O=C(c1cccc(C(F)(F)F)c1Cl)N1[C@H]2CCC[C@@H]1c1nnc(-c3cccnc3)n1C2 (stereo in doubt) [Example 14, (6S*,10R*)-11-{[2-Chloro-3-(trifluoromethyl)phenyl]carbonyl}-3-pyridin-3-yl-5,6,7,8,9,10-hexahydro-6,10-epimino[1,2,4]triazolo[4,3-a]azocine]
- remaining activity at 10 µM (P2X7, Table 1, 10 μM compound): 2.4%
- remaining activity at 10 µM [1]: 2.4%

SMILES: Cc1cccc(-c2nnc3n2C[C@@H]2CCC[C@H]3N2C(=O)c2cccc(C(F)(F)F)c2Cl)n1 (stereo in doubt) [Example 23, (6S*,10R*)-11-{[2-Chloro-3-(trifluoromethyl)phenyl]carbonyl}-3-(6-methylpyridin-2-yl)-5,6,7,8,9,10-hexahydro-6,10-epimino[1,2,4]triazolo[4,3-a]azocine]
- remaining activity at 10 µM (P2X7, Table 1, 10 μM compound): 8%
- remaining activity at 10 µM [1]: 8%

SMILES: Cc1c(C(=O)N2[C@@H]3CCC[C@H]2c2nnc(-c4ccccn4)n2C3)cccc1C(F)(F)F (stereo in doubt) [Example 201, (6R,10S)-11-{[2-Methyl-3-(trifluoromethyl)phenyl]carbonyl}-3-pyridin-2-yl-5,6,7,8,9,10-hexahydro-6,10-epimino[1,2,4]triazolo[4,3-a]azocine]
- remaining activity at 10 µM [1]: -4%

SMILES: O=C(c1ccc(F)c(Cl)c1Cl)N1[C@@H]2CCC[C@H]1c1nnc(-c3ccccn3)n1C2 (stereo in doubt) [Example 203, (6R,10S)-11-[(2,3-Dichloro-4-fluorophenyl)carbonyl]-3-pyridin-2-yl-5,6,7,8,9,10-hexahydro-6,10-epimino[1,2,4]triazolo[4,3-a]azocine]
- remaining activity at 10 µM [1]: -5%

SMILES: O=C(c1cccc(C(F)(F)F)c1Cl)N1[C@H]2CCC[C@@H]1c1nnc(-c3ccc(F)cn3)n1C2 (stereo in doubt) [Example 11, (6S*,10R*)-11-{[2-Chloro-3-(trifluoromethyl)phenyl]carbonyl}-3-(5-fluoropyridin-2-yl)-5,6,7,8,9,10-hexahydro-6,10-epimino[1,2,4]triazolo[4,3-a]azocine]
- remaining activity at 10 µM (P2X7, Table 1, 10 μM compound): 38.9%
- remaining activity at 10 µM [1]: 38.9%

SMILES: Cc1cccc(-c2nnc3n2C[C@H]2CCC[C@@H]3N2C(=O)c2cccc(C(F)(F)F)c2Cl)n1 (stereo in doubt) [Example 24, (6R*,10S*)-11-{[2-Chloro-3-(trifluoromethyl)phenyl]carbonyl}-3-(6-methylpyridin-2-yl)-5,6,7,8,9,10-hexahydro-6,10-epimino[1,2,4]triazolo[4,3-a]azocine]
- remaining activity at 10 µM (P2X7, Table 1, 10 μM compound): 32.7%
- remaining activity at 10 µM [1]: 32.7%
